Laboratory results published in US20260109664A1, “COMPOUNDS FOR USE AS MEDICAMENTS” (priority 2022, published 2026).

Key:
E. coli [1] = assay: Co-culture of C. difficile and E. coli, CFU percentages: E. coli; format: cell-based, Escherichia coli; conditions: MM + 6.6 mM p-HPA + 6.6 mM inhibitor, 1% DMSO, 14 hours co-culture, FIGS. 7 to 13
Protocol: (§1) Compounds EX1 to EX7 were tested to determine their ability to reduce the growth of C. difficile relative to E. coli.
(§2) C. difficile 630Δerm and E. coli were grown overnight in MM. C. difficile was back diluted to an OD590 nm of 0.2. 18 μl of the back dilution was added to 1.8 ml of the test conditions: MM, MM+6.6 mM p-HPA, MM+6.6 mM inhibitor, and MM+6.6 mM p-HPA+6.6 mM inhibitor, in a 24 well plate. Each inhibitor was dissolved in DMSO such that the final concentration in the 24 well plate was 1% v/v. C. difficile was grown for 8 hours before E. coli underwent back dilution to an OD590 nm of 0.2 and 18 μl was inoculated into the C. difficile wells to give the co-culture. The co-culture was grown for 14 hours. The proportion of the co-cultures made up by C. difficile and E. coli were determined by colony-forming units per millilitre (CFU/ml) assays with co-cultures plated on to BHIS plates in duplicate with selective media for each species. C. difficile was selected for using cycloserine (250 mg/l) and cefoxitin (8 mg/l) whilst E. coli was selected for using vancomycin (4 mg/l). […] CFUs were counted on the following day. CFU data is presented using CFU percentages which were calculated by dividing the number of CFUs for each species by the total number of CFUs for both E. coli and C. difficile and multiplying by 100. […] Data was analysed by linear regression carried using Stata17.

C. difficile 630Δerm [2] = assay: Co-culture of C. difficile and E. coli, CFU percentages: C. difficile; format: cell-based, Clostridioides difficile; conditions: MM + 6.6 mM p-HPA + 6.6 mM inhibitor, 1% DMSO, 14 hours co-culture, FIGS. 7 to 13
Protocol: as §1, §2

C. difficile 630Δerm [3] = assay: Toxicity growth curves (OD590 nm) of C. difficile monoculture in minimal media; format: cell-based, Clostridioides difficile; conditions: 8-hour growth curve; for effect on the growth of C. difficile (growth curve, OD590 nm): compound 6.6 mM in MM with 1% DMSO, FIGS. 1a to 5b
Protocol: (§3) Compounds EX1 to EX5 were separately tested to determine their toxicity to C. difficile and E. coli.
(§4) Each compound was dissolved to 6.6 mM in minimal media (MM) with 1% DMSO based on the MM described by Cartman et al. in Appln. Environ. Microbiol, 2010, 76, 1103 and the concentration was matched in a 1:1 ratio of the compound to the substrate p-HPA.
(§5) To determine growth rates of C. difficile and E. coli in the presence of compounds EX1 to EX5, three colonies of C. difficile or three colonies of E. coli were used to inoculate a primary culture of 10 mL MM in 50 cm^3 vented tissue culture flasks (Thermo Scientific). Following overnight incubation on a shaking platform at 50 rpm, the primary culture was back diluted in MM to OD590 nm 0.5 using a Fisherbrand™ Digital Colorimeter model 4.5 (Fisher Scientific). 1 ml of the OD590 nm 0.5 culture was inoculated into 10 ml of MM in 50 cm^3 vented tissue culture flasks with and without 4-hydroxyphenylacetic acid and the relevant compound (EX1 to EX5).
(§6) OD590 nm readings were determined every hour for eight hours using a Fisherbrand™ Digital Colorimeter model 4.5 (Fisher Scientific).
(§7) Growth curves denoting growth over an 8-hour time period for C. difficile and E. coli in MM with the presence of 4-hydroxyphenylacetic acid and inhibitors EX1 to EX5, each at 6.6 mM. Absorbance was measured at OD590 nm. *p<0.05, **p<0.01, samples represent a minimum of three biological replicates graphed in GraphPad prism (v9). Raw absorbance was normalised using a blank MM control.

E. coli [4] = assay: Toxicity growth curves (OD590 nm) of E. coli monoculture in minimal media; format: cell-based, Escherichia coli; conditions: compound 6.6 mM in MM with 1% DMSO, 8-hour growth curve, FIGS. 1a to 5b
Protocol: as §3, §4, §5, §6, §7

[5] = test system: production of 4-methylphenol by C. difficile; assay: HPLC of C. difficile monocultures: 4-methylphenol (p-cresol) production; format: cell-based, Clostridioides difficile; conditions: 630Δerm, 8 hours, 1.5 mg/ml p-HPA with matched 6.6 mM compound, normalised to OD590 nm, FIG. 14
Protocol: C. difficile monocultures were established in the presence of the following compounds EX1, EX3, EX5 and EX8.
Samples of 630Δerm were collected following growth in minimal media with 1% DMSO v/v for 8 hours with 1.5 mg/ml p-HPA with matched (6.6 mM) concentrations of compounds EX1, EX3, EX5 and EX8. At the time of sample collection, the OD590 nm of the culture was measured. Samples were immediately filter sterilised using 0.22 μm filters, then frozen at −80° C. prior to HPLC analysis.
The filter-sterilized samples were transferred to HPLC vials and analysed immediately by injecting onto the HPLC column. Separations were achieved by utilizing an Acclaim 120 (Thermofisher), C18, 5 μm (4.6×150 mm), with the mobile phase consisting of ammonium formate (10 mM, pH 2.7) and […] (v/v; 50:50) at a flow rate of 1400 μl/min. p-HPA and p-cresol were detected by the diode array detector (PDA; DAD 3000) set at 280 nm. Peak identity was confirmed by measuring the retention time of commercially available p-HPA and p-cresol, and determination of absorbance spectra was performed using the DAD. A calibration curve of each compound was generated by Chromeleon (Dionex software) using known amounts of the reference standards (0-5 mg/ml) dissolved in media and injected onto the column, and the amount of p-HPA and p-cresol in the samples was determined. Samples from three independent biological replicates were analysed compared to media controls and standard curves. The limit of detection for p-HPA and p-cresol are 0.001 and 0.0005 mg/ml, respectively. The p-cresol concentration was normalised to growth by using the OD590 nm measured at the time of sample collection.

[6] = test system: production of 4-methylphenol by C. difficile; assay: HPLC of C. difficile / E. coli co-culture: 4-methylphenol production; format: cell-based, Clostridioides difficile; conditions: 630Δerm and E. coli co-culture, no normalisation to OD590 nm, FIG. 15
Protocol: A C. difficile 630Δerm and E. coli co-culture was established (as per the methods previously described) in the presence of compound EX3.
Following co-culture, CFU assays were undertaken to determine relative survival of C. diff and E. coli. The remaining sample was filter sterilised (0.22 μm filters), then frozen at −80° C. prior to the HPLC analysis. HPLC analysis was carried out as described above (HPLC monocultures) with the exception of there being no normalisation of the 4-methylphenol concentration to OD590 nm.

Row | Structure (SMILES) | effect on the growth of C. difficile (growth curve, OD590 nm) (C. difficile 630Δerm [3]) | effect on the growth of E. coli (growth curve, OD590 nm) (E. coli [4]) | production of 4-methylphenol by C. difficile (HPLC, monoculture) [5] | further results
1 | O=C(O)Cc1ccc(O)cc1 [EX7] | – | – | – | impact on the growth of E. coli in co-culture with C. difficile (E. coli [1]): little or no negative impact; inhibition of the growth of C. difficile in co-culture with E. coli (CFU percentage) (C. difficile 630Δerm [2]): able to inhibit the growth
2 | OCCc1ccc(O)cc1 [EX2] | toxic | toxic | – | –
3 | O=C(O)c1ccc(O)cc1 [EX5] | no effect on the growth | no effect on the growth | reduced | –
4 | O=C(O)CCc1ccc(O)cc1 [EX4] | no effect on the growth | – | – | –
5 | NC(=O)Cc1ccc(O)cc1 [EX1] | no effect on the growth | inhibited the growth | reduced | –
6 | COC(=O)Cc1ccc(O)cc1 [EX8] | – | – | reduced | –
7 | N#CCc1ccc(O)cc1 [EX3] | – | inhibited the growth | reduced | production of 4-methylphenol by C. difficile (HPLC, co-culture with E. coli) [6]: reduced; effect on the growth of C. difficile when both compound and p-HPA present (C. difficile 630Δerm [3]; compound 6.6 mM + p-HPA 6.6 mM (1:1) in MM): inhibited the growth
8 | CC(C)(C(=O)O)c1ccc(O)cc1 [EX6] | – | – | – | impact on the growth of E. coli in co-culture with C. difficile (E. coli [1]): little or no negative impact; inhibition of the growth of C. difficile in co-culture with E. coli (CFU percentage) (C. difficile 630Δerm [2]): able to inhibit the growth
